16 molecules from US12264134B2 (Merck Sharp & Dohme LLC, priority 2018, dated 2025) can be followed below.

Test [1] has as its target T1, IDO1 (Homo sapiens, UniProt P14902). Briefly: IDO1 Cellular Assay in HeLa Cells Stimulated with IFNγ. It counts as cell-based. The settings on record: read-out: HeLa Cell Potency, IC50.
Test [2] addresses T1, IDO1. The test is described as follows: IDO1 Human Whole blood Assay. It counts as cell-based. Details: Human whole blood was drawn in sodium heparin coated tubes from healthy internal donors; from tissue; host or cells: human whole blood from healthy donors, stimulated with LPS and IFNγ. The settings on record: LPS and IFNγ stimulated, 18 h, read-out: Human Whole Blood Potency, IC50. The gist of the method: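 Heparinized healthy-donor human whole blood was preincubated 15 min with compound, then stimulated with LPS and IFNγ (100 ng/mL final) for 18 h at 37 °C. Plasma kynurenine was quantified by LC/MS/MS against a D6-kynurenine internal standard, and IC50s came from 4-parameter sigmoidal fits.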

Molecules are shown by their SMILES. Where a name gives a salt, the structure may show the parent alone. A value given as a limit tells only on which side of the number the result lay.

T1 sequence (P14902 whole entry): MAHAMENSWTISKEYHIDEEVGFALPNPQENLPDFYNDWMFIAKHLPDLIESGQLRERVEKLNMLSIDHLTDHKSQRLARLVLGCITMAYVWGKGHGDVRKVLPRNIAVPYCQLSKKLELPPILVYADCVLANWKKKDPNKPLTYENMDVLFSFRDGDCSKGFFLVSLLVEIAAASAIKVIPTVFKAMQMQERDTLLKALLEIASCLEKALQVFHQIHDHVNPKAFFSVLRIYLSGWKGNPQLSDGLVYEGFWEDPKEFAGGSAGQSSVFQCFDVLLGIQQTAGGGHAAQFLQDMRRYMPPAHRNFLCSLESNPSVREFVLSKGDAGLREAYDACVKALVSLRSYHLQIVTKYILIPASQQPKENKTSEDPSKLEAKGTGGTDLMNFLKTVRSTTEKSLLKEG

Usually IC50 stands for the concentration at which inhibition is half-maximal. Regarding `Cc1cccc(N2CCN(C(=O)Cn3nc(C(=O)N4CCC(O)(C(F)F)CC4)c4c3CCC4)CC2)c1C` [Example 192, 2-{3-[4-(difluoromethyl)-4-hydroxypiperidine-1-carbonyl]-5,6-dihydrocyclopenta[c]pyrazol-1(4H)-yl}-1-[4-(2,3-dimethylphenyl)piperazin-1-yl]ethan-1-one], the concentration for half-maximal inhibition (IC50) in test [1] was 1.64 nM; in test [2] it was 196 nM.
Consider `Cc1cccc(N2CCN(C(=O)Cn3nc(C(=O)N4CCCC4)c4c3CCC(F)C4)CC2)c1C` (single isomer, unassigned) [Example 7, 1-(4-(2,3-dimethylphenyl)piperazin-1-yl)-2-(5-fluoro-3-(pyrrolidine-1-carbonyl)-4,5,6,7-tetrahydro-1H-indazol-1-yl)ethanone], for which the IC50 in test [1] was found to be 11.1 nM; in test [2], 934 nM.
The corresponding values for `Cc1cccc(N2CCN(C(=O)Cn3nc(C(=O)N4CCC(O)C(F)C4)c4c3CCC4)C3(CC3)C2)c1C` (single isomer, unassigned) [Example 393, 1-(7-(2,3-dimethylphenyl)-4,7-diazaspiro[2.5]octan-4-yl)-2-(3-(3-fluoro-4-hydroxypiperidine-1-carbonyl)-5,6-dihydrocyclopenta[c]pyrazol-1(4H)-yl)ethanone] are 7.61 nM and 971 nM.
The corresponding values for `Cc1c(F)ccc(N2CCN(C(=O)Cn3nc(C(=O)N4CCC(O)CC4)c4c3CCCC4)CC2)c1C` [Example 451, 1-(4-(4-fluoro-2,3-dimethylphenyl)piperazin-1-yl)-2-(3-(4-hydroxypiperidine-1-carbonyl)-4,5,6,7-tetrahydro-1H-indazol-1-yl)ethanone] are 1.2 nM and 36 nM.
The corresponding values for `Cc1cccc(N2CCN(C(=O)Cn3nc(C(=O)N4CCC(c5cn[nH]c5)CC4)c4c3CCC4)CC2)c1C` [Example 142, 1-[4-(2,3-dimethylphenyl)piperazin-1-yl]-2-{3-[4-(1H-pyrazol-4-yl)piperidine-1-carbonyl]-5,6-dihydrocyclopenta[c]pyrazol-1(4H)-yl}ethan-1-one] are 1.29 nM and 48 nM.
With `Cc1cccc(N2CCN(C(=O)Cn3nc(C(=O)N4CCC(O)CC4)c4c3CCCC4)CC2)c1Cl` [Example 450, 1-(4-(2-chloro-3-methylphenyl)piperazin-1-yl)-2-(3-(4-hydroxypiperidine-1-carbonyl)-4,5,6,7-tetrahydro-1H-indazol-1-yl)ethanone], the figures for the IC50 in test [1] and in test [2] were 1.83 nM and 152 nM, respectively.
The corresponding values for `Cc1cccc(N2CCN(C(=O)Cn3nc(C(=O)N4CCC5(CO)CC4C5)c4c3C[C@H]3C[C@@H]43)C(C)(C)C2)c1C` [Example 333, 1-[4-(2,3-dimethylphenyl)-2,2-dimethylpiperazin-1-yl]-2-{(3bR,4aR)-3-[5-(hydroxymethyl)-2-azabicyclo[3.1.1]heptane-2-carbonyl]-3b,4,4a,5-tetrahydro-1H-cyclopropa[3,4]cyclopenta[1,2-c]pyrazol-1-yl}ethan-1-one] are 8.73 nM and over 10000 nM.
On the same counts, the results for `Cc1cccc(N2CCN(C(=O)Cn3nc(C(=O)N4CC[C@H](O)[C@H](C)C4)c4c3C[C@H]3C[C@@H]43)CC2)c1C` [Example 280, 1-[4-(2,3-dimethylphenyl)piperazin-1-yl]-2-{(3bR,4aR)-3-[(3R,4S)-4-hydroxy-3-methylpiperidine-1-carbonyl]-3b,4,4a,5-tetrahydro-1H-cyclopropa[3,4]cyclopenta[1,2-c]pyrazol-1-yl}ethan-1-one] are 0.79 nM and 127 nM.
On the same counts, the results for `Cc1cccc(N2CCN(C(=O)Cn3nc(C(=O)N4CC[C@H](N)[C@@H](F)C4)c4c3CCC4)CC2)c1C` [Example 203, [(3S,4S)-1-[1-[2-[4-(2,3-dimethylphenyl)piperazin-1-yl]-2-oxo-ethyl]-5,6-dihydro-4H-cyclopenta[c]pyrazole-3-carbonyl]-3-fluoro-4-piperidyl]ammonium; formate] are 13 nM and 278 nM.
Turning to `Cc1cccc(N2CCN(C(=O)Cn3nc(C(=O)N4CC[C@H](O)[C@@H](C)C4)c4c3CCC4)CC2)c1C` [Example 109, 1-[4-(2,3-dimethylphenyl)piperazin-1-yl]-2-{3-[(3S,4S)-4-hydroxy-3-methylpiperidine-1-carbonyl]-5,6-dihydrocyclopenta[c]pyrazol-1(4H)-yl}ethan-1-one], the figures for the IC50 in test [1] and in test [2] were 1.86 nM and 399 nM, respectively.
On the same counts, the results for `Cc1c(F)ccc(N2CCN(C(=O)Cn3nc(C(=O)N4CCN(CC(N)=O)CC4)c4c3C[C@H]3C[C@@H]43)C3(CC3)C2)c1C` [Example 322, 2-{4-[(3bR,4aR)-1-{2-[7-(4-fluoro-2,3-dimethylphenyl)-4,7-diazaspiro[2.5]octan-4-yl]-2-oxoethyl}-3b,4,4a,5-tetrahydro-1H-cyclopropa[3,4]cyclopenta[1,2-c]pyrazole-3-carbonyl]piperazin-1-yl}acetamide] are 1.6 nM and 1050 nM.
On the same counts, the results for `Cc1c(N2CCN(C(=O)Cn3nc(C(=O)N4CC[C@@H](O)[C@@H](F)C4)c4c3C[C@H]3C[C@@H]43)CC2)cccc1C(F)(F)F` [Example 339, 2-((3bR,4aR)-3-((3S,4R)-3-fluoro-4-hydroxypiperidine-1-carbonyl)-3b,4,4a,5-tetrahydro-1H-cyclopropa[3,4]cyclopenta[1,2-c]pyrazol-1-yl)-1-(4-(2-methyl-3-(trifluoromethyl)phenyl)piperazin-1-yl)ethanone] are 1.81 nM and 229 nM.
The corresponding values for `Cc1cccc(N2CCN(C(=O)Cn3nc(C(=O)N4CCC(O)(CF)CC4)c4c3C[C@H]3C[C@@H]43)C(C)(C)C2)c1C` [Example 332, 1-[4-(2,3-dimethylphenyl)-2,2-dimethylpiperazin-1-yl]-2-{(3bR,4aR)-3-[4-(fluoromethyl)-4-hydroxypiperidine-1-carbonyl]-3b,4,4a,5-tetrahydro-1H-cyclopropa[3,4]cyclopenta[1,2-c]pyrazol-1-yl}ethan-1-one] are 70 nM and 9490 nM.
In the case of `Cc1c(Cl)cccc1N1CCN(C(=O)Cn2nc(C(=O)N3CC[C@H](N)[C@@H](F)C3)c3c2C[C@H]2C[C@@H]32)C2(CC2)C1` [Example 315, 2-{(3bR,4aR)-3-[(3S,4S)-4-amino-3-fluoropiperidine-1-carbonyl]-3b,4,4a,5-tetrahydro-1H-cyclopropa[3,4]cyclopenta[1,2-c]pyrazol-1-yl}-1-[7-(3-chloro-2-methylphenyl)-4,7-diazaspiro[2.5]octan-4-yl]ethan-1-one], the IC50 in test [1] was 3.21 nM; in test [2], 272 nM.
On the same counts, the results for `Cc1cccc(N2CCN(C(=O)Cn3nc(C(=O)N4CCC(O)(CN)CC4)c4c3C[C@H]3C[C@@H]43)CC2)c1C` [Example 238, 2-{(3bR,4aR)-3-[4-(aminomethyl)-4-hydroxypiperidine-1-carbonyl]-3b,4,4a,5-tetrahydro-1H-cyclopropa[3,4]cyclopenta[1,2-c]pyrazol-1-yl}-1-[4-(2,3-dimethylphenyl)piperazin-1-yl]ethan-1-one] are 8.43 nM and 5050 nM.
On the same counts, the results for `Cc1cccc(N2CCN(C(=O)Cn3nc(C(=O)N4CCN5CCOC[C@@H]5C4)c4c3CCC4)CC2)c1C` [Example 174, 1-[4-(2,3-dimethylphenyl)piperazin-1-yl]-2-{3-[(9aS)-hexahydropyrazino[2,1-c][1,4]oxazine-8(1H)-carbonyl]-5,6-dihydrocyclopenta[c]pyrazol-1(4H)-yl}ethan-1-one] are 3.75 nM and 480 nM.
